Test results reported in US8680139B2 (Progenra, priority 2009, dated 2014).
pEC50: −log10 of the molar value.

These compounds were tested against T1, USP7 (Homo sapiens, UniProt Q93009) (assay: USP7, Ub-PLA2 assay). Conditions: Ub-PLA2 / NBD C6-HPC fluorescence, 30 minute preincubation; read-out: EC50 for inhibition of USP7.
T1 construct: full length human USP7 protein; made in house
Type: biochemical
Experimental: The purpose of this assay is to measure the inhibition of USP7 by various compounds of the invention synthesized according to the above-described methods. […] The vehicle control was 100% (v/v) DMSO. 1.6 μL aliquots of the diluted test compound and controls were dispensed into individual wells in a black walled 96 well plate. […] The data were normalized within a plate relative to the control wells using the equation % inhibition=(100−(((RFUcompound−RFUmean NEM) / (RFUmean DMSO−RFUmean NEM))×100)).

T1 sequence (Q93009 whole entry): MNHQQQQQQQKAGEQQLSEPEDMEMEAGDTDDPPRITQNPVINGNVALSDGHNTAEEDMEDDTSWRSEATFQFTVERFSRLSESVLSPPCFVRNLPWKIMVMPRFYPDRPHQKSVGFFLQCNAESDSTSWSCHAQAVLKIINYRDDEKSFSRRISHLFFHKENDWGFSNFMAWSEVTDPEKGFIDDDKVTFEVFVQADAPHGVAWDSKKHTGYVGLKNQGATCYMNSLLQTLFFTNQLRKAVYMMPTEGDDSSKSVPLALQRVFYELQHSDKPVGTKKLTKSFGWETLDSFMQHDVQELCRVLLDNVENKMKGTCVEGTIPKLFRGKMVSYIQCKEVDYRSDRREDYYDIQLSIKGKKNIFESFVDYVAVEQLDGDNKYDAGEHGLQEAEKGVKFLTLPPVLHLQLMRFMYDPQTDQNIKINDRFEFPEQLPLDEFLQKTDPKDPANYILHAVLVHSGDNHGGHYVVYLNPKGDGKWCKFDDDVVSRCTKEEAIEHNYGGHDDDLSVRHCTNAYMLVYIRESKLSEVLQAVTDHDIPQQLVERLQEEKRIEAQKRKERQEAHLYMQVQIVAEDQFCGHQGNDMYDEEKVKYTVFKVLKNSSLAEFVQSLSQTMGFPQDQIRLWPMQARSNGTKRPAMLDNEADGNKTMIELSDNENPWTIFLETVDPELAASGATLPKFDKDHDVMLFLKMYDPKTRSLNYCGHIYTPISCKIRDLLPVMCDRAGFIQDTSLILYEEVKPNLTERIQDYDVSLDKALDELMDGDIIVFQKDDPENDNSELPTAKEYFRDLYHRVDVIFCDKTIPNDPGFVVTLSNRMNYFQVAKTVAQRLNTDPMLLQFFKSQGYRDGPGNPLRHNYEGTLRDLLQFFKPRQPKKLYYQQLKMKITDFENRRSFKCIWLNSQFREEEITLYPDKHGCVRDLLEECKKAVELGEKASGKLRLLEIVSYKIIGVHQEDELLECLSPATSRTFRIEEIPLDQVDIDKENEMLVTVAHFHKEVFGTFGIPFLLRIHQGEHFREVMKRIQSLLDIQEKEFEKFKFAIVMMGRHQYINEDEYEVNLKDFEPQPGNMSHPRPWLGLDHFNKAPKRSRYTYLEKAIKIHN

Row | Compound | pEC50
1 | O=C(Nc1ccccc1)c1cc([N+](=O)[O-])c(Sc2c(Cl)cncc2Cl)s1 [Example 116, 5-((3,5-dichloropyridin-4-yl)thio)-4-nitro-N-phenylthiophene-2-carboxamide] | ≥ 6.00
2 | CS(=O)(=O)N1CCC(NC(=O)c2cc([N+](=O)[O-])c(Sc3c(Cl)cncc3Cl)s2)CC1 [Example 233, 5-((3,5-dichloropyridin-4-yl)thio)-N-(1-(methylsulfonyl)piperidin-4-yl)-4-nitrothiophene-2-carboxamide] | ≥ 6.00
3 | CN1CCC(O)(CNC(=O)c2cc([N+](=O)[O-])c(Sc3c(Cl)cncc3Cl)s2)CC1 [Example 90, 5-((3,5-dichloropyridin-4-yl)thio)-N-((4-hydroxy-1-methylpiperidin-4-yl)methyl)-4-nitrothiophene-2-carboxamide] | 5.00 to 6.00
4 | COc1cccc(CNC(=O)c2cc([N+](=O)[O-])c(Sc3c(Cl)cncc3Cl)s2)c1 [Example 99, 5-((3,5-dichloropyridin-4-yl)thio)-N-(3-methoxybenzyl)-4-nitrothiophene-2-carboxamide] | ≥ 6.00
5 | COCCNC(=O)c1cc([N+](=O)[O-])c(Sc2c(Cl)cncc2Cl)s1 [Example 53, 5-((3,5-dichloropyridin-4-yl)thio)-N-(2-methoxyethyl)-4-nitrothiophene-2-carboxamide] | 5.00 to 6.00
6 | O=C(NCc1ccc(O)cc1)c1cc([N+](=O)[O-])c(Sc2c(Cl)cncc2Cl)s1 [Example 165, 5-((3,5-dichloropyridin-4-yl)thio)-N-(4-hydroxybenzyl)-4-nitrothiophene-2-carboxamide] | ≥ 6.00
7 | CC(=O)c1cc([N+](=O)[O-])c(Sc2c(Cl)c[n+]([O-])cc2Cl)s1 [Example 18, 1-[5-(3,5-dichloro-1-oxido-pyridin-1-ium-4-yl)sulfanyl-4-nitro-2-thienyl]ethanone] | 5.00 to 6.00
8 | CN1CCC(NC(=O)c2cc([N+](=O)[O-])c(Sc3c(Cl)c[n+]([O-])cc3Cl)s2)CC1 [Example 242, 3,5-dichloro-4-((5-((1-methylpiperidin-4-yl)carbamoyl)-3-nitrothiophen-2-yl)thio)pyridine 1-oxide] | 5.00 to 6.00
9 | COC(=O)c1cc([N+](=O)[O-])c(Sc2c(Cl)cncc2Cl)s1 [Example 43, Methyl 5-[(3,5-dichloro-4-pyridyl)sulfanyl]-4-nitro-thiophene-2-carboxylate] | 5.00 to 6.00
10 | COc1cc(NC(=O)c2cc([N+](=O)[O-])c(Sc3c(Cl)cncc3Cl)s2)ccc1OCCCN(C)C [Example 240, 5-((3,5-dichloropyridin-4-yl)thio)-N-(4-(3-(dimethylamino)propoxy)-3-methoxyphenyl)-4-nitrothiophene-2-carboxamide] | ≥ 6.00
11 | CC(=O)c1cc(I)c(Sc2ccc(Cl)cc2Cl)s1 [Example 20, 1-[5-(2,4-dichlorophenyl)sulfanyl-4-iodo-2-thienyl]ethanone] | < 5.00
12 | O=C(NCc1ccc2c(c1)OCO2)c1cc([N+](=O)[O-])c(Sc2c(Cl)cncc2Cl)s1 [Example 151, N-(benzo[d][1,3]dioxol-5-ylmethyl)-5-((3,5-dichloropyridin-4-yl)thio)-4-nitrothiophene-2-carboxamide] | ≥ 6.00
13 | CC(=O)c1cc([N+](=O)[O-])c(Sc2ccncc2Cl)s1 [Example 39, 1-[5-[(3-chloro-4-pyridyl)sulfanyl]-4-nitro-2-thienyl]ethanone] | < 5.00
14 | CN(C)c1ccc(CNC(=O)c2cc([N+](=O)[O-])c(Sc3c(Cl)cncc3Cl)s2)cc1 [Example 121, 5-((3,5-dichloropyridin-4-yl)thio)-N-(4-(dimethylamino)benzyl)-4-nitrothiophene-2-carboxamide] | ≥ 6.00
15 | CC(C)N1CCC(NC(=O)c2cc([N+](=O)[O-])c(Oc3c(Cl)cncc3Cl)s2)CC1 [Example 260, 5-((3,5-dichloropyridin-4-yl)oxy)-N-(1-isopropylpiperidin-4-yl)-4-nitrothiophene-2-carboxamide] | < 5.00
16 | Cc1cnc(NC(=O)c2cc([N+](=O)[O-])c(Sc3c(Cl)cncc3Cl)s2)s1 [Example 89] | 5.00 to 6.00
17 | N=C(N)N1CCC(NC(=O)c2cc([N+](=O)[O-])c(Sc3c(Cl)cncc3Cl)s2)CC1 [Example 237, N-(1-carbamimidoylpiperidin-4-yl)-5-((3,5-dichloropyridin-4-yl)thio)-4-nitrothiophene-2-carboxamide] | ≥ 6.00
18 | CSCCCNC(=O)c1cc([N+](=O)[O-])c(Sc2c(Cl)cncc2Cl)s1 [Example 194, 5-((3,5-dichloropyridin-4-yl)thio)-N-(3-(methylthio)propyl)-4-nitrothiophene-2-carboxamide] | ≥ 6.00
19 | CCCN1CCC(NC(=O)c2cc([N+](=O)[O-])c(Sc3c(Cl)cncc3Cl)s2)CC1 [Example 230, 5-((3,5-dichloropyridin-4-yl)thio)-4-nitro-N-(1-propylpiperidin-4-yl)thiophene-2-carboxamide] | ≥ 6.00
20 | CN1CCC(NC(=O)CNC(=O)c2cc([N+](=O)[O-])c(Sc3c(Cl)cncc3Cl)s2)CC1 [Example 222, 5-((3,5-dichloropyridin-4-yl)thio)-N-(2-((1-methylpiperidin-4-yl)amino)-2-oxoethyl)-4-nitrothiophene-2-carboxamide] | ≥ 6.00
21 | CC(=O)Nc1cccc(CNC(=O)c2cc([N+](=O)[O-])c(Sc3c(Cl)cncc3Cl)s2)c1 [Example 122, N-(3-acetamidobenzyl)-5-((3,5-dichloropyridin-4-yl)thio)-4-nitrothiophene-2-carboxamide] | ≥ 6.00
22 | O=C(Nc1ccc2c(c1)OCO2)c1cc([N+](=O)[O-])c(Sc2c(Cl)cncc2Cl)s1 [Example 158, N-(benzo[d][1,3]dioxol-5-yl)-5-((3,5-dichloropyridin-4-yl)thio)-4-nitrothiophene-2-carboxamide] | ≥ 6.00
23 | Cc1nc(NC(=O)c2cc([N+](=O)[O-])c(Sc3c(Cl)cncc3Cl)s2)sc1C [Example 88, 5-((3,5-dichloropyridin-4-yl)thio)-N-(4,5-dimethylthiazol-2-yl)-4-nitrothiophene-2-carboxamide] | 5.00 to 6.00
24 | O=C(NC12CC3CC(CC(O)(C3)C1)C2)c1cc([N+](=O)[O-])c(Sc2c(Cl)cncc2Cl)s1 [Example 176, 5-((3,5-dichloropyridin-4-yl)thio)-N-((1r,3s,5R,7S)-3-hydroxyadamantan-1-yl)-4-nitrothiophene-2-carboxamide] | ≥ 6.00
25 | O=C(c1cc([N+](=O)[O-])c(Sc2c(Cl)cncc2Cl)s1)N1CCC(F)CC1 [Example 74, (5-((3,5-dichloropyridin-4-yl)thio)-4-nitrothiophen-2-yl)(4-fluoropiperidin-1-yl)methanone] | 5.00 to 6.00
26 | COC(=O)c1ccc(CNC(=O)c2cc([N+](=O)[O-])c(Sc3c(Cl)cncc3Cl)s2)cc1 [Example 163, methyl 4-((5-((3,5-dichloropyridin-4-yl)thio)-4-nitrothiophene-2-carboxamido)methyl)benzoate] | ≥ 6.00
27 | CC(=O)c1cc([N+](=O)[O-])c(Sc2cnc3ccccc3n2)s1 [Example 37, 1-(4-nitro-5-quinoxalin-2-ylsulfanyl-2-thienyl)ethanone] | 5.00 to 6.00
28 | CC(=O)c1cc([N+](=O)[O-])c(Sc2cccc3ccccc23)s1 [Example 5, 1-[5-(Naphth-1-ylsulfanyl)-4-nitro-2-thienyl]ethanone] | < 5.00
